The source of these data is EP4782453A1 (Beyang Therapeutics Co., Ltd., priority 2023, dated 2025).

One test has as its target T1, Menin-MLL (Homo sapiens, UniProt O00255).
T1 construct: His-Menin (M1-L615 end); purchased BIORTUS BP9210
T1 sequence (O00255 1-615 isoform O00255-1): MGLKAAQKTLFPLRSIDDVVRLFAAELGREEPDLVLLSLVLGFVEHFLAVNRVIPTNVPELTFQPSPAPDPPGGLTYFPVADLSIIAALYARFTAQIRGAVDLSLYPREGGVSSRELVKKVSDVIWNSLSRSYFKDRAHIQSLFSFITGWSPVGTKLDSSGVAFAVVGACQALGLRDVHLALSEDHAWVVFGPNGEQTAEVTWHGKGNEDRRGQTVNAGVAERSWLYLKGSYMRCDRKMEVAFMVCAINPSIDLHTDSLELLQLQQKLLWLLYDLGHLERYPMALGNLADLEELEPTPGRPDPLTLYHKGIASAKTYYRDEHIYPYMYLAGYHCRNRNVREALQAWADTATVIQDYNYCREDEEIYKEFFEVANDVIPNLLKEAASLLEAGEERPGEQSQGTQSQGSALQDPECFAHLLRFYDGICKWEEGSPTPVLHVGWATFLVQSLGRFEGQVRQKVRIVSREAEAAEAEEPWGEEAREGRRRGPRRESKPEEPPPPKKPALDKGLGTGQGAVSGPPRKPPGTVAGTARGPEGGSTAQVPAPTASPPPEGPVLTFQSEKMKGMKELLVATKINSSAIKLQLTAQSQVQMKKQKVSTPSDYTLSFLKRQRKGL
The experiment in a line: Inhibitory activity against Menin-MLL binding (fluorescence polarization). The following applies: 150 nM His-Menin, 15 nM FITC-MLL, 25°C for 60 min. In outline:
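His-Menin (M1-L615, 150 nM) preincubated with compound 15 min at 25 °C in HEPES pH 7.5, 50 mM NaCl, 1 mM DTT, 0.01% BSA, then 15 nM FITC-MLL4-43 peptide added for 60 min at 25 °C. Fluorescence polarization read; IC50 from 4-parameter logistic fit, duplicates.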
A general note: Polarisation of emitted light reports the rotation of a fluorescent probe.

The next test relates to KG-1a (wild-type MLL). The experiment in a line: Inhibition of proliferation of human tumor cells (Alamar Blue, 7 days), KG-1a control cell line. Type of test: cell-based. The conditions noted are these: 168 h, KG-1a cells (wild-type MLL, control cell line), method calls the value GI50. A digest of the protocol:
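Cells seeded at 4,000/well (MV-4-11, MOLM-13) or 3,000/well (KG-1a), treated in duplicate with serial compound dilutions for 7 days at 37°C, 5% CO2. Alamar Blue fluorescence read on Day 7, normalised to 0.1% DMSO Day-7 (high) and Day-0 (low) controls; GI50 derived.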

[1] abbreviates: fluorescence polarization, read-out: Menin-MLL IC50.

A word on the IC50: it is the concentration that inhibits the measured activity by half.

The structures appear in SMILES notation. Where two headings read alike, the source gives them in different places. Bounds are passed on as bounds.

With `COCCN(C)CCC[C@H](C(C)C)N1CC(c2cc(-c3ccc(F)cc3C(=O)N3CCOC[C@H]3C)c3c(F)nc(C)n3c2)C1` [Example 200-1], the figures for the concentration for half-maximal inhibition (IC50) on Menin-MLL (setting [1]) and in the test with KG-1a (wild-type MLL) were 4.3 nM and 20 µM, respectively.

`CCN(C(=O)c1cc(F)ccc1-c1cc(C2CCN(Cc3ccc(-c4cc(OC)c(OC)nn4)cc3)C2)cn2c(C)ncc12)C(C)C` (stereo not drawn) [Example 83]: the results for the IC50 at Menin-MLL (setting [1]) and in the test on KG-1a (wild-type MLL) were 6 nM and 7.4 µM, respectively.

For `Cc1nc(F)c2c(-c3ccc(F)cc3C(=O)N3CCOC[C@H]3C)cc(C3CN([C@H](CCCN4CCN(C)CC4)C(C)C)C3)cn12` [Example 275, (3R)-4-[5-fluoro-2-(1-fluoro-3-methyl-6-{1-[(3R)-2-methyl-6-(4-methylpiperazin-1-yl)hexan-3-yl]azacyclobutan-3-yl}imidazo[1,5-a]pyridin-8-yl)benzoyl]-3-methylmorpholine], the IC50 at Menin-MLL (setting [1]) amounted to 3.2 nM; in the test on KG-1a (wild-type MLL), 20 µM.

With `CCNC(=O)N1CCC(CN2CC(c3cc(-c4ccc(F)cc4C(=O)N4CCOC[C@H]4C)c4c(F)nc(C)n4c3)C2)CC1` [Example 261], the figures for the half-inhibitory concentration (IC50) at Menin-MLL (setting [1]) and in the test on KG-1a (wild-type MLL) were 8.5 nM and 20 µM, respectively.

On to `COC1CCN(CCCC(C(C)C)N2CC(c3cc(-c4ccc(F)cc4C(=O)N4CCOCC4C)c4c(F)nc(C)n4c3)C2)C1` (stereo not drawn) [Example 201-1], for which the IC50 at Menin-MLL (setting [1]) came out at 2.6 nM; with KG-1a (wild-type MLL) it was 20 µM.

With `COCCN(C)CCC[C@H](C(C)C)N1CC(c2cc(-c3ccc(F)cc3C(=O)N3[C@H](C)COC[C@H]3C)c3cnn(C)c3c2)C1` [Example 186-2, [(4R)-4-[3-(4-{2-[(3R,5R)-3,5-dimethylmorpholin-4-carbonyl]-4-fluorophenyl}-1-methyl-1H-indazol-6-yl)azacyclobutan-1-yl]-5-methylhexyl](2-methoxyethyl)methylamine], the IC50 was 5.2 nM at Menin-MLL (setting [1]) and 20 µM with KG-1a (wild-type MLL).

Turning to `CCS(=O)(=O)N[C@H]1CC[C@H](CN2CC(c3cc(-c4ccc(F)cc4C(=O)N4[C@H](C)COC[C@H]4C)c4c(F)nc(C)n4c3)C2)CC1` [Example 197, N-[(1r,4r)-4-{[3-(8-{2-[(3R,5R)-3,5-dimethylmorpholin-4-carbonyl]-4-fluorophenyl}-1-fluoro-3-methylimidazo[1,5-a]pyridin-6-yl)azacyclobutan-1-yl]methyl}cyclohexyl]ethan-1-sulfonamide], the IC50 at Menin-MLL (read-out: Menin-MLL IC50, fluorescence polarization) was 6.5 nM; in the test with KG-1a (wild-type MLL), 20 µM.

Take `Cc1nc(F)c2c(-c3ccc(F)cc3C(=O)N3CCOC[C@H]3C)cc(C3CN(C(CC[C@@H]4COCCN4)C(C)C)C3)cn12` (stereo partly drawn) [Example 371, (3R)-4-{5-fluoro-2-[1-fluoro-3-methyl-6-(1-{4-methyl-1-[(3R)-morpholin-3-yl]pentan-3-yl}azacyclobutan-3-yl)imidazo[1,5-a]pyridin-8-yl]benzoyl}-3-methylmorpholine]: the IC50 on Menin-MLL (setting [1]) was 4.8 nM; in the test with KG-1a (wild-type MLL), greater than 20 µM.

Take `Cc1nc(F)c2c(-c3ccc(F)cc3C(=O)N3CCOCC3C)cc(C3CN(C(CCCN4CCCC(O)C4)C(C)C)C3)cn12` (stereo not drawn) [Example 292]: the IC50 at Menin-MLL (setting [1]) came to 4.5 nM; in the test on KG-1a (wild-type MLL), 20 µM.

As to `CNC(=O)N1CCC([C@H](C)N2CC(c3cc(-c4ccc(F)cc4C(=O)N4CCOC[C@H]4C)c4c(F)nc(C)n4c3)C2)CC1` [Example 264-2], the IC50 is 6 nM at Menin-MLL (setting [1]) and 20 µM in the test with KG-1a (wild-type MLL).

`Cc1nc(F)c2c(-c3ccc(F)cc3C(=O)N3CCOC[C@H]3C)cc(C3CN([C@H](CCCN4CCC[C@H](O)C4)C(C)C)C3)cn12` [Example 293]: the IC50 is 3.1 nM at Menin-MLL (setting [1]) and 20 µM with KG-1a (wild-type MLL).

`Cc1nc(F)c2c(-c3ccc(F)cc3C(=O)N3CCOC[C@H]3C)cc(C3CN([C@H](CCCN4C[C@H]5C[C@@H]4CO5)C(C)C)C3)cn12` [Example 353, (1R,4R)-5-[(4R)-4-[3-(1-fluoro-8-{4-fluoro-2-[(3R)-3-methylmorpholin-4-carbonyl]phenyl}-3-methylimidazo[1,5-a]pyridin-6-yl)azacyclobutan-1-yl]-5-methylhexyl]-2-oxa-5-azabicyclo[2.2.1]heptane]: the IC50 on Menin-MLL (setting [1]) is 2.6 nM; in the test on KG-1a (wild-type MLL) it was greater than 20 µM.

As to `CCS(=O)(=O)N[C@H]1CC[C@H](CN2CC(c3cc(-c4ccc(F)cc4C(=O)N4CCOC[C@H]4C)c4cnc(C)n4c3)C2)CC1` [Example 134, N-[(1r,4r)-4-{[3-(8-{4-fluoro-2-[(3R)-3-methylmorpholin-4-carbonyl]phenyl}-3-methylimidazo[1,5-a]pyridin-6-yl)azacyclobutan-1-yl]methyl}cyclohexyl]ethan-1-sulfonamide], the IC50 at Menin-MLL (Menin-MLL IC50, fluorescence polarization) turned out to be 17.5 nM; in the test on KG-1a (wild-type MLL) it was 20 µM.

Turning to `CCN1CCN(CCC[C@H](C(C)C)N2CC(c3cc(-c4ccc(F)cc4C(=O)N4CCOC[C@H]4C)c4c(F)nc(C)n4c3)C2)CC1` [Example 277], the IC50 is 3.3 nM at Menin-MLL (setting [1]) and 20 µM in the test on KG-1a (wild-type MLL).

Take `CO[C@H]1CCCN(CCC[C@H](C(C)C)N2CC(c3cc(-c4ccc(F)cc4C(=O)N4CCOC[C@H]4C)c4c(F)nc(C)n4c3)C2)C1` [Example 306]: the results for the IC50 on Menin-MLL (setting [1]) and with KG-1a (wild-type MLL) were 6.5 nM and 20 µM, respectively.

In the case of `CC(=O)N1CCC(CN2CC(c3cc(-c4ccc(F)cc4C(=O)N4[C@H](C)COC[C@H]4C)c4c(F)nc(C)n4c3)C2)CC1` [Example 205], the half-inhibitory concentration (IC50) at Menin-MLL (setting [1]) worked out at 10.3 nM; in the test with KG-1a (wild-type MLL), 20 µM.

As to `Cc1nc(F)c2c(-c3ccc(F)cc3C(=O)N3[C@H](C)COC[C@H]3C)cc(C3CN(CC4CCOCC4)C3)cn12` [Example 208], the IC50 at Menin-MLL (setting [1]) amounted to 9 nM; in the test on KG-1a (wild-type MLL), 20 µM.

With `COCCN(C)CCCC(C(C)C)N1CC(c2cc(-c3ccc(F)cc3C(=O)N(CC(F)F)C(C)C)c3c(F)nc(C)n3c2)C1` (stereo not drawn) [Example 142, N-(2,2-difluoroethyl)-5-fluoro-2-[1-fluoro-6-(1-{6-[(2-methoxyethyl)(methyl)amino]-2-methylhexan-3-yl}azacyclobutan-3-yl)-3-methylimidazo[1,5-a]pyridin-8-yl]-N-(isopropyl)benzamide], the IC50 on Menin-MLL (setting [1]) was determined as 10 nM; in the test with KG-1a (wild-type MLL), 3.6 µM.
